{
  "source": "patent US9884042B2",
  "about": "“Formulations of cyclopropanecarboxylic acid {2-[(1S)-1-(3-ethoxy-4-methoxy-phenyl)-2-methanesulfonyl-ethyl]-3-oxo-2,3-dihydro-1H-isoindol-4-yl}-amide” (Celgene Corporation, priority 2011, dated 2018)",
  "key": {"[1]": {"system": "PDE4 enzyme from U937 human monocytic cells", "assay": "Enzyme assay using purified PDE4 enzyme", "format": "biochemical", "source_text": "Cyclopropane carboxylic acid {2-[(1S)-1-(3-ethoxy-4-methoxy-phenyl)-2-methanesulfonyl-ethyl]-3-oxo-2,3-dihydro-1H-isoindol-4-yl}-amide (“Compound A”) is a novel compound with anti-inflammatory activity in clinical development for the treatment of a variety of chronic inflammatory conditions. Pharmacologically, Compound A blocks the degradation of cyclic adenosine monophosphate (cAMP) via inhibition of the phosphodiesterase type IV (PDE4) enzyme, resulting in an increase in cAMP in PDE4-expressing cells including monocytes, T cells, and neutrophils. Enzyme assay data using purified PDE4 enzyme from U937 human monocytic cells indicate that Compound A has a PDE4 IC50 of 100 nM (50 ng/mL). Compound A and methods for its synthesis are described, e.g., in U.S. Patent Publication No. 2010/0129363, the disclosure of which is hereby incorporated by reference in its entirety. Compound A may also be prepared according to the process described in U.S. Patent Publication No. 2010/0168475, the disclosure of which is hereby incorporated in its entirety."}, "[2]": {"assay": "Solubility of the drug substance", "format": "physicochemical", "settings": "qualitative statement", "source_text": "Due to its diversified pharmacological properties, Compound A is useful in treating, preventing, and/or managing various diseases or disorders."}},
  "note": "pIC50: −log10 of the molar value.",
  "data": [
    {"compound": "CCOc1cc([C@@H](CS(C)(=O)=O)N2Cc3cccc(NC(=O)C4CC4)c3C2=O)ccc1OC", "note": "[Compound A, cyclopropanecarboxylic acid {2-[(1S)-1-(3-ethoxy-4-methoxy-phenyl)-2-methanesulfonyl-ethyl]-3-oxo-2,3-dihydro-1H-isoindol-4-yl}-amide]", "values": [
      {"measurement": "pIC50", "setting": "[1]", "result": 7.00},
      {"measurement": "PDE4 IC50", "setting": "[1]; same value in mass units", "result": 0.05, "unit": "µg/mL"},
      {"measurement": "Solubility", "setting": "[2]", "result": "poorly soluble"}
    ]}
  ]
}
